From ChEMBL document CHEMBL1150976, “The selectivity of protein kinase inhibitors: a further update” (Biochem J, 2007)
Each block holds one compound with its values, some of them ahead of it. The source made the active and inactive calls. The rule behind the calls is not given here.

Tests used:
[1] = molecular target: Serine/threonine-protein kinase pim-2 (Homo sapiens, UniProt Q9P1W9); assay: Inhibition of PIM2 in the presence of 5uM ATP
[2] = molecular target: T1, Cyclin-G-associated kinase (Homo sapiens) (UniProt O14976); assay: Percentage GAK activity remaining in the presence of 1uM inhibitor; conditions: filed as antagonist
T1 sequence (whole entry): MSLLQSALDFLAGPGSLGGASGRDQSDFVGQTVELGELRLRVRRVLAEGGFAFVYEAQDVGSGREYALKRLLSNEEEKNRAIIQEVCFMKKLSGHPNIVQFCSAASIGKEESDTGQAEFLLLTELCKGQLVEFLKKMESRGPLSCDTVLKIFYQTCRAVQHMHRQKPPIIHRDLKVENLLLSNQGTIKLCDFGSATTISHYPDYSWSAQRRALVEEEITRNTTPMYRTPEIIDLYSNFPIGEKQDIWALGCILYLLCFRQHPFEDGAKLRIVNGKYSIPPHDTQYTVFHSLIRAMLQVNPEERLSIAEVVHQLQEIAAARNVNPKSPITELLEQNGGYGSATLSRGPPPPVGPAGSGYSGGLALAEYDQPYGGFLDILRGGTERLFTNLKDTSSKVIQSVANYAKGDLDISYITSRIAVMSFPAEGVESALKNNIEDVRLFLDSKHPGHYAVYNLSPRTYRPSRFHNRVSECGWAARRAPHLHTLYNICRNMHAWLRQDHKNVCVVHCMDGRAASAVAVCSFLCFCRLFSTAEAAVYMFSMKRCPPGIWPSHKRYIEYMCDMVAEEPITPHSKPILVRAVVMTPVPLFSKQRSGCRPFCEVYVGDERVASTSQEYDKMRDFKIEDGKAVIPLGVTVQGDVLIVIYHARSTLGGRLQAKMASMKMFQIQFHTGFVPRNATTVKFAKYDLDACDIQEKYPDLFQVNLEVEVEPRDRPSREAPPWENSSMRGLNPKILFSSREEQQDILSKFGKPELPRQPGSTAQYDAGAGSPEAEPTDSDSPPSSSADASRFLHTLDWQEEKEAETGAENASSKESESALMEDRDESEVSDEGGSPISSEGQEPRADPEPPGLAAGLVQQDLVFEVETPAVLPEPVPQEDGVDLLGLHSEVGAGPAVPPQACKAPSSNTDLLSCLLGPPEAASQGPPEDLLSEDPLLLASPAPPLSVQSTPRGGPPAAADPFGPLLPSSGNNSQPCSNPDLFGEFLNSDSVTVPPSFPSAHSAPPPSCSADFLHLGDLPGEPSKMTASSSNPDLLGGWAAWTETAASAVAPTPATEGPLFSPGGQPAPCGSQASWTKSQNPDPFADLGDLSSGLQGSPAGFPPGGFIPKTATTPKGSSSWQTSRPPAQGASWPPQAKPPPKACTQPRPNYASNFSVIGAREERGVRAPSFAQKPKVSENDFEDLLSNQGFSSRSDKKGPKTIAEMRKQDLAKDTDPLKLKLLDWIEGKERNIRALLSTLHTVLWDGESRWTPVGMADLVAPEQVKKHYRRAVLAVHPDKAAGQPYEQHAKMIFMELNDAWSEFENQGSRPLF

[3] = molecular target: Serine/threonine-protein kinase pim-1 (Homo sapiens, UniProt P11309); assay: Inhibition of PIM1 in the presence of 20uM ATP
[4] = molecular target: T2, Receptor-interacting serine/threonine-protein kinase 2 (Homo sapiens, UniProt O43353); assay: Percentage RIP2 activity remaining in the presence of 1uM inhibitor; conditions: filed as antagonist
[5] = molecular target: T3, Serine/threonine-protein kinase pim-3 (Homo sapiens, UniProt Q86V86); assay: Inhibition of PIM3 in the presence of 20uM ATP
[6] = molecular target: Serine/threonine-protein kinase Sgk1 (Homo sapiens, UniProt O00141); assay: Inhibition of SGK1 in the presence of 20uM ATP
[7] = molecular target: Proto-oncogene tyrosine-protein kinase LCK (Mus musculus, UniProt P06240); assay: Inhibition of Lck in the presence of 50uM ATP
[8] = molecular target: Casein kinase I isoform delta (Homo sapiens, UniProt P48730)
[9] = molecular target: Aurora kinase B (Homo sapiens, UniProt Q96GD4); assay: Inhibition of Aurora B in the presence of 20uM ATP
[10] = molecular target: Dual specificity tyrosine-phosphorylation-regulated kinase 3 (Homo sapiens, UniProt O43781); assay: Inhibition of DYRK3 in the presence of 5uM ATP
[11] = system: HEK293; assay: Inhibition of CHK2-T68 phosphorylation in MMS treated HEK293 cells at 0.5uM; type: functional, cell-based; conditions: Homo sapiens
[12] = system: HEK293; assay: Inhibition of PKB-S473 phosphorylation in IGF-1 treated HEK293 cells at 0.5uM; type: functional, cell-based; conditions: Homo sapiens, filed as antagonist
[13] = system: HEK293; assay: Inhibition of CHK1-S345 phosphorylation in MMS treated HEK293 cells at 0.5uM; type: functional, cell-based; conditions: Homo sapiens
[14] = molecular target: Serine/threonine-protein kinase BRSK2 (Homo sapiens, UniProt Q8IWQ3); assay: Inhibition of BRSK2 in the presence of 50uM ATP
[15] = molecular target: Aurora kinase C (Homo sapiens, UniProt Q9UQB9); assay: Inhibition of Aurora C in the presence of 5uM ATP
[16] = molecular target: Serine/threonine-protein kinase 3 (Homo sapiens, UniProt Q13188); assay: Inhibition of MST2 in the presence of 50uM ATP
[17] = Inhibition of AMPK in the presence of 50uM ATP; design: species or system Rattus norvegicus
[18] = molecular target: Proto-oncogene tyrosine-protein kinase Src (Gallus gallus, UniProt P00523); assay: Inhibition of Src in the presence of 50uM ATP
[19] = molecular target: Mitogen-activated protein kinase 8 (Homo sapiens, UniProt P45983, M108A); assay: Inhibition of JNK-M108A in the presence of 20uM ATP
[20] = molecular target: T2, Receptor-interacting serine/threonine-protein kinase 2; assay: Percentage RIP2 activity remaining in the presence of 10uM inhibitor; conditions: filed as antagonist
[21] = molecular target: cAMP-dependent protein kinase catalytic subunit alpha (Homo sapiens, UniProt P17612); assay: Inhibition of PKA in the presence of 20uM ATP
[22] = molecular target: T2, Receptor-interacting serine/threonine-protein kinase 2; assay: Inhibition of RIP2 in the presence of 100uM ATP
[23] = molecular target: Mitogen-activated protein kinase 8 (Homo sapiens, UniProt P45983, M108G); assay: Inhibition of JNK-M108G in the presence of 20uM ATP
[24] = molecular target: Serine/threonine-protein kinase D1 (Homo sapiens, UniProt Q15139); assay: Inhibition of PKD1 in the presence of 50uM ATP
[25] = molecular target: Tyrosine-protein kinase CSK (Homo sapiens, UniProt P41240); assay: Inhibition of CSK in the presence of 20uM ATP
[26] = molecular target: T1, Cyclin-G-associated kinase (Homo sapiens); assay: Percentage GAK activity remaining in the presence of 10uM inhibitor; conditions: filed as antagonist
[27] = molecular target: Myosin light chain kinase, smooth muscle (Homo sapiens, UniProt Q15746); assay: Inhibition of SmMLCK in the presence of 50uM ATP
[28] = molecular target: Glycogen synthase kinase-3 beta (Homo sapiens, UniProt P49841); assay: Inhibition of GSK3-beta in the presence of 20uM ATP
[29] = molecular target: Dual specificity tyrosine-phosphorylation-regulated kinase 2 (Homo sapiens, UniProt Q92630); assay: Inhibition of DYRK2 in the presence of 50uM ATP
[30] = molecular target: Mitogen-activated protein kinase 8 (Homo sapiens, UniProt P45983); assay: Inhibition of JNK1 in the presence of 20uM ATP
[31] = molecular target: T3, Serine/threonine-protein kinase pim-3; assay: Inhibition of PIM3 in the presence of 5uM ATP
[32] = molecular target: Mitogen-activated protein kinase 9 (Homo sapiens, UniProt P45984); assay: Inhibition of JNK2 in the presence of 20uM ATP
[33] = molecular target: T3, Serine/threonine-protein kinase pim-3; assay: Inhibition of PIM3 in the presence of 100uM ATP
[34] = molecular target: Casein kinase II (Homo sapiens, UniProt P19784+P67870+P68400); assay: Inhibition of CK2 in the presence of 5uM ATP; type: protein-complex assay
[35] = molecular target: Mitogen-activated protein kinase 14 (Homo sapiens, UniProt Q16539)
[36] = molecular target: Serine/threonine-protein kinase PLK1 (Homo sapiens, UniProt P53350); assay: Inhibition of PLK1 in the presence of 5uM ATP

T2 sequence (O43353 whole entry): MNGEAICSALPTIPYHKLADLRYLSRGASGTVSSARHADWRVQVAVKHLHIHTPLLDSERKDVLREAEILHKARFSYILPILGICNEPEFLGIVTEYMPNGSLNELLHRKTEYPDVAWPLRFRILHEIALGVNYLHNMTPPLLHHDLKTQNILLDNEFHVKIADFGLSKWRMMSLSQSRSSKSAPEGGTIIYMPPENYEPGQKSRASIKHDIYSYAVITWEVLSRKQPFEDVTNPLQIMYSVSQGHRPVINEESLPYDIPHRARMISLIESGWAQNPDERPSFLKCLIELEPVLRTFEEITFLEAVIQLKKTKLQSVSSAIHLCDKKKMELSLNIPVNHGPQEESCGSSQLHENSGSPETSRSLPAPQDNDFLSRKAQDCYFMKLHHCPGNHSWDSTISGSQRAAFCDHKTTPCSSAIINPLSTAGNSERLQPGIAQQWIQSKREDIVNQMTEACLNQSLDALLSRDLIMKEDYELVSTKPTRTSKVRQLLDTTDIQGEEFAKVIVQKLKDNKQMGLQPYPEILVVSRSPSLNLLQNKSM
Chain of Proto-oncogene tyrosine-protein kinase LCK (P06240 whole entry, canonical isoform): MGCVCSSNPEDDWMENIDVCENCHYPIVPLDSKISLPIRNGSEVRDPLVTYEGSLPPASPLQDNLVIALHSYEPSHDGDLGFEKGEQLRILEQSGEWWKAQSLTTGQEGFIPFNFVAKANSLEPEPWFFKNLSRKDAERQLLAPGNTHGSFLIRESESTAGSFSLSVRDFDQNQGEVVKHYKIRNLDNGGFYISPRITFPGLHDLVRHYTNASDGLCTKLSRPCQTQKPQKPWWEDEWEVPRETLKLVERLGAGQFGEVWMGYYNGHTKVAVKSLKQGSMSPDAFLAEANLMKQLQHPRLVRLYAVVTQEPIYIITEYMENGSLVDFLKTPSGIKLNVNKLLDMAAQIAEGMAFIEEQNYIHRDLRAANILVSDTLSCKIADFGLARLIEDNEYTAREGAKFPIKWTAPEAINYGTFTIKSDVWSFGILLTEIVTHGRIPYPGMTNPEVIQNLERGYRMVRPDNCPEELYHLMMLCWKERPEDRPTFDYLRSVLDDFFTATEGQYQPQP
Chain of Serine/threonine-protein kinase D1 (Q15139 whole entry): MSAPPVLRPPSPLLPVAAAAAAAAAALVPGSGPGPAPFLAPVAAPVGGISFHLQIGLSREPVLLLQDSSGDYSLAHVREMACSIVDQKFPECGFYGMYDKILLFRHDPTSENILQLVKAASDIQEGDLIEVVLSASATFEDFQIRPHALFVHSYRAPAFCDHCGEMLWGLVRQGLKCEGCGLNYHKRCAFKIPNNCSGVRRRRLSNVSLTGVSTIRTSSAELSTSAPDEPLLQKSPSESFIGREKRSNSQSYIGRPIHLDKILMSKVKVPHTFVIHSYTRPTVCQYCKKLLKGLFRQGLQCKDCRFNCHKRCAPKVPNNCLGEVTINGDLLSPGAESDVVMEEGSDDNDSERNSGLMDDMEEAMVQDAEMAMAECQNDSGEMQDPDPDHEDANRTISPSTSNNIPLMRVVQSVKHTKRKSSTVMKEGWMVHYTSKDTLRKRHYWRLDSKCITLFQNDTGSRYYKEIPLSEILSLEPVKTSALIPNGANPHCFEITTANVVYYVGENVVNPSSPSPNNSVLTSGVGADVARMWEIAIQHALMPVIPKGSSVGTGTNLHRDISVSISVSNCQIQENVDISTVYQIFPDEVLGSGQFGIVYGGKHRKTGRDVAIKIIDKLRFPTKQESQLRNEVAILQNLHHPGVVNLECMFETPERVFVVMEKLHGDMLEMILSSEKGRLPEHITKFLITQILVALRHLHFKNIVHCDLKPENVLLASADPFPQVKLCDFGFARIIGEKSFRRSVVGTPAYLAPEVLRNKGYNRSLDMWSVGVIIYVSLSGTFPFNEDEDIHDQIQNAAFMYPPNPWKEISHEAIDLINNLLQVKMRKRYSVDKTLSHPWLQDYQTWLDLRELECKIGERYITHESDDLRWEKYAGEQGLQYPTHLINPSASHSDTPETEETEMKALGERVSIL
Chain of Serine/threonine-protein kinase pim-2 (Q9P1W9 whole entry): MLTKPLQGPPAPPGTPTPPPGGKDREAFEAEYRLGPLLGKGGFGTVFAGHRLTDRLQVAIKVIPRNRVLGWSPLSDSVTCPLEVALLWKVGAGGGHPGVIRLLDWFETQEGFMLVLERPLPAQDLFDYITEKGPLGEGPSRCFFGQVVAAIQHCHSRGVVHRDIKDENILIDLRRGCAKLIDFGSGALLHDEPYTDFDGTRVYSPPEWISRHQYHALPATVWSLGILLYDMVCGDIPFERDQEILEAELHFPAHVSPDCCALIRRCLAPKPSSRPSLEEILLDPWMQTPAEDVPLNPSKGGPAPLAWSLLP
Chain of Serine/threonine-protein kinase pim-1 (P11309 whole entry): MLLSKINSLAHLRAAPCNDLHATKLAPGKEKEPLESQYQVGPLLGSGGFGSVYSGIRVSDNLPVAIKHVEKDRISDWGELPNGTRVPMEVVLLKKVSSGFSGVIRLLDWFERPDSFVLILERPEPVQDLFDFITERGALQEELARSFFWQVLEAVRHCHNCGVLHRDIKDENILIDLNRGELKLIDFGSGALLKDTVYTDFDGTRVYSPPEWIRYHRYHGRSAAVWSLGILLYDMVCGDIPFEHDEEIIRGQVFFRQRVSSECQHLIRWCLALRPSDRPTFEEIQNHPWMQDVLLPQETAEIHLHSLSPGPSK
Chain of Dual specificity tyrosine-phosphorylation-regulated kinase 2 (Q92630 whole entry): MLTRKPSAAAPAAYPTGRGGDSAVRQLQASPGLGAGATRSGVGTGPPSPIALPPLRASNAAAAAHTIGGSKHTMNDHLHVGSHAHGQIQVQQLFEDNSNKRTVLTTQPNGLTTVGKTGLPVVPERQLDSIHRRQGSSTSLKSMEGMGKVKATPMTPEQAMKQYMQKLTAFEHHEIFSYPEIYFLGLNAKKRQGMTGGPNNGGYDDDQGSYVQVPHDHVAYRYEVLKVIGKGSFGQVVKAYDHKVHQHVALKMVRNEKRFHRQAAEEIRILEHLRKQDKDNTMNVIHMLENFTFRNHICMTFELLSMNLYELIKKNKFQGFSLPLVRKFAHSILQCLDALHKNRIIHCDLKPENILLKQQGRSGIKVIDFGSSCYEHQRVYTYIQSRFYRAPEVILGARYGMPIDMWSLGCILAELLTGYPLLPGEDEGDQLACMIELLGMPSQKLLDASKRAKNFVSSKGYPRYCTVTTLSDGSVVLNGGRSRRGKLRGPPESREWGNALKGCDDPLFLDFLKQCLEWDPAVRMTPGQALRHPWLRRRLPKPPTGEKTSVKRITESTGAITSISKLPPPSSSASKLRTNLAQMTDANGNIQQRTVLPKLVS
Chain of Aurora kinase B (Q96GD4 whole entry): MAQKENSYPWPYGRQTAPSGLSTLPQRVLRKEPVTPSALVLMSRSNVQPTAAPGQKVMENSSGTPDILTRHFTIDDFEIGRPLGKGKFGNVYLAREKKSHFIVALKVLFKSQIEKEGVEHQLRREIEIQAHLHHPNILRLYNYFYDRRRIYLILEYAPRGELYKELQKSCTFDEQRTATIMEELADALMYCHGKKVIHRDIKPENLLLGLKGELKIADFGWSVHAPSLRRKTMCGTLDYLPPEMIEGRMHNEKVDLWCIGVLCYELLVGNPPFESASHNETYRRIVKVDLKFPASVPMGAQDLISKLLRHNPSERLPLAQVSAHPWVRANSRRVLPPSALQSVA
Chain of Serine/threonine-protein kinase BRSK2 (Q8IWQ3 whole entry): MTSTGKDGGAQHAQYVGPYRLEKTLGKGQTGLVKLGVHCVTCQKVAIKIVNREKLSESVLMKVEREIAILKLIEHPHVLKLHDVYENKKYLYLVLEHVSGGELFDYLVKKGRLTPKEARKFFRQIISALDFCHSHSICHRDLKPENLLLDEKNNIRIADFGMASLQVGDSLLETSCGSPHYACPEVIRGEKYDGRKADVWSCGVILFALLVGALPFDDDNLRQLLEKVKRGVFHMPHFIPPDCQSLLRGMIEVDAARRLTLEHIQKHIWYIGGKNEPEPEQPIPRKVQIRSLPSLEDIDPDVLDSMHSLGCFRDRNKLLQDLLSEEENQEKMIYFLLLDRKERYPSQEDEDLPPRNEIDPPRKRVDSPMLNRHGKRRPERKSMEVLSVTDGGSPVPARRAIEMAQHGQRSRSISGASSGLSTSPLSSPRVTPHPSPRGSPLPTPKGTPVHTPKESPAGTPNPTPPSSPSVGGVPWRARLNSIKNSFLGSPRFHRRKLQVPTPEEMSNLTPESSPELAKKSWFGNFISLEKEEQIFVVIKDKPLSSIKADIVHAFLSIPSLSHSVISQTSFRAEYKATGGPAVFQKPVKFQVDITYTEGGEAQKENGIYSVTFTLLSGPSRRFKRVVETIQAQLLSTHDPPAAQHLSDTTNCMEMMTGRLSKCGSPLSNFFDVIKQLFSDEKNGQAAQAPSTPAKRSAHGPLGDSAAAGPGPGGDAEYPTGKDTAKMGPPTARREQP
Chain of Aurora kinase C (Q9UQB9 whole entry): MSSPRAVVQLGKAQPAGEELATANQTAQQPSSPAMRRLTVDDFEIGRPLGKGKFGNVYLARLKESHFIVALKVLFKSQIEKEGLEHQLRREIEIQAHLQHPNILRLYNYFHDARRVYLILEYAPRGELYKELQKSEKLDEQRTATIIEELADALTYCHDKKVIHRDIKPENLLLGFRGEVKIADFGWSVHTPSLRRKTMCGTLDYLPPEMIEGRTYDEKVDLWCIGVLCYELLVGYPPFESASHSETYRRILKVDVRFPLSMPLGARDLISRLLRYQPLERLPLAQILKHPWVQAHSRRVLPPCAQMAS

Structure (SMILES): O=C1Nc2ccc(I)cc2C1=Cc1cc(Br)c(O)c(Br)c1 [GW305074X]
IC50 [1]: 70 nM (antagonist) | Activity [2]: 32% | IC50 [3]: 170 nM (antagonist) | Activity [4]: 35% | IC50 [5]: 100 nM (antagonist)

IC50 [6]: 2700 nM (antagonist) | IC50 [7]: 2500 nM (antagonist) | IC50 [8]: 510 nM (antagonist) | IC50 [9]: 2500 nM (antagonist) | IC50 [10]: 3200 nM (antagonist)
Structure (SMILES): Nc1ncnc2[nH]nc(Nc3ccc(F)cc3)c12

Structure (SMILES): Oc1cccc(-c2nc(N3CCOCC3)c3oc4ncccc4c3n2)c1
Activity [11]: inactive | Activity [12]: Antagonist | Activity [13]: inactive

IC50 [14]: 100 nM (antagonist) | IC50 [7]: 150 nM (antagonist) | IC50 [9]: 19 nM (antagonist) | IC50 [15]: 17 nM (antagonist) | IC50 [16]: 110 nM (antagonist) | IC50 [17]: 110 nM (antagonist) | IC50 [18]: 100 nM (antagonist)
Structure (SMILES): CN(C)S(=O)(=O)c1ccc2c(c1)/C(=C/c1cc3c([nH]1)CCCC3)C(=O)N2

IC50 [19]: 250 nM (antagonist) | IC50 [7]: 460 nM (antagonist) | Activity [2]: 43% | Activity [20]: 5% | Activity [4]: 14% | IC50 [21]: 500 nM (antagonist) | IC50 [22]: 130 nM (antagonist) | IC50 [23]: 140 nM (antagonist) | IC50 [24]: 250 nM (antagonist) | IC50 [25]: 510 nM (antagonist) | Activity [26]: 6%
Structure (SMILES): CC(C)(C)n1nc(Cc2cccc3ccccc23)c2c(N)ncnc21

Structure (SMILES): COC[C@H]1OC(=O)c2coc3c2[C@@]1(C)C1=C(C3=O)[C@@H]2CCC(=O)[C@@]2(C)C[C@H]1OC(C)=O [WORTMANNIN]
IC50 [27]: 5000 nM (antagonist)

IC50 [28]: 40 nM (antagonist) | IC50 [29]: 300 nM (antagonist) | IC50 [3]: 80 nM (antagonist) | IC50 [30]: 2600 nM (antagonist) | IC50 [31]: 30 nM (antagonist) | IC50 [32]: 5000 nM (antagonist)
Structure (SMILES): N#C/C(=C1/Nc2ccccc2S1)c1ccnc(NCCc2cccnc2)n1

IC50 [1]: 110 nM (antagonist) | IC50 [29]: 950 nM (antagonist) | IC50 [33]: 83 nM (antagonist) | IC50 [34]: 190 nM (antagonist) | IC50 [17]: 160 nM (antagonist)
Structure (SMILES): O=C(O)c1ccc2c3c1cccc3c(=O)n1c3ccccc3nc21

IC50 [35]: 5800 nM (antagonist) | IC50 [24]: 9100 nM (antagonist)
Structure (SMILES): NC(=O)c1ccc(-c2nc(-c3ccc4c(c3)OCCO4)c(-c3ccccn3)[nH]2)cc1

IC50 [36]: 2000 nM (antagonist) | IC50 [5]: 1400 nM (antagonist)
Structure (SMILES): O=c1cc(N2CCOCC2)oc2c(-c3ccccc3)cccc12 [LY-294002]
